The subject of this experiment is BDF1 mice, B16 melanoma ip, median survival T/C. Kind of experiment: NCI In Vivo Anticancer Drug Screen. Data for tumor model B16 Melanoma (intraperitoneal) in B6D2F1 (BDF1) mice. The note with it: endpoint: median survival time, higher = longer survival. In a few lines: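 Read-out: survival or tumor size, given as treated/control ratio. Controls received vehicle only; animals bore transplantable tumors.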

[1] abbreviates: dose: 25.0 mg/kg/injection, schedule: Q04DX003 (ip), vehicle: Klucel (hydroxypropylcellulose) (HPC).
Setting [2] is: dose: 50.0 mg/kg/injection, schedule: Q04DX003 (ip), vehicle: Klucel (hydroxypropylcellulose) (HPC).
Where [3] appears, read: dose: 100.0 mg/kg/injection, schedule: Q04DX003 (ip), vehicle: Klucel (hydroxypropylcellulose) (HPC).
[4] abbreviates: dose: 12.5 mg/kg/injection, schedule: Q01DX009 (ip), vehicle: saline.
[5] abbreviates: dose: 25.0 mg/kg/injection, schedule: Q01DX009 (ip), vehicle: saline.
[6] abbreviates: dose: 50.0 mg/kg/injection, schedule: Q01DX009 (ip), vehicle: saline.
[7] abbreviates: dose: 6.25 mg/kg/injection, schedule: Q01DX009 (ip), vehicle: saline with Tween-80.
Setting [8] is: dose: 12.5 mg/kg/injection, schedule: Q01DX009 (ip), vehicle: saline with Tween-80.
The mark [9] stands for this setting: dose: 25.0 mg/kg/injection, schedule: Q01DX009 (ip), vehicle: saline with Tween-80.
[10] abbreviates: dose: 25.0 mg/kg/injection, schedule: Q01DX009 (ip), vehicle: Klucel (hydroxypropylcellulose) (HPC).
Where [11] appears, read: dose: 50.0 mg/kg/injection, schedule: Q01DX009 (ip), vehicle: Klucel (hydroxypropylcellulose) (HPC).
Where [12] appears, read: dose: 100.0 mg/kg/injection, schedule: Q01DX009 (ip), vehicle: Klucel (hydroxypropylcellulose) (HPC).
The mark [13] stands for this setting: dose: 200.0 mg/kg/injection, schedule: Q01DX009 (ip), vehicle: Klucel (hydroxypropylcellulose) (HPC).
[14] abbreviates: dose: 12.5 mg/kg/injection, schedule: Q01DX009 (ip), vehicle: Klucel (hydroxypropylcellulose) (HPC).

“And” between values parts separate entries of the source, which are not always exact repeats. Equal values may be shown once. Toxic doses and inconclusive results are not listed.

In PubChem BioAssay AID192 (DTP/NCI, 2004) one finds T/C data, which are given here for 21 molecules.

As for `O=C/C(Br)=C\c1ccccc1`, the T/C runs as follows: under setting [1], 96 % of control; under setting [2], 103 % of control; under setting [3], 96 % of control.

On to `CC(C)(C)OC(=O)C(CC(=O)O)NC(=O)OCc1ccccc1` (stereo not drawn) (tested in a mixture with another compound), for which the T/C is, setting by setting: (dose: 15.0 mg/kg/injection, schedule: Q01DX009 (ip), vehicle: saline) 107 % of control; (dose: 30.0 mg/kg/injection, schedule: Q01DX009 (ip), vehicle: saline) 102 % of control; (dose: 60.0 mg/kg/injection, schedule: Q01DX009 (ip), vehicle: saline) 108 % of control.

In the case of `CC(C)N(Cc1ccccc1)CC(O)c1ccc(Cl)cc1` (stereo not drawn), the T/C is 94 % of control under setting [4], 86 % of control under setting [5] and 101 % of control under setting [6].

Turning to `CN1CCC=C(CN2c3ccccc3Sc3ccc(Cl)cc32)C1`, the T/C runs as follows: under setting [4], 95 % of control; under setting [5], 94 % of control.

As for `CC(C)(C)OC(=O)NC(Cc1ccc(OCc2ccccc2)cc1)C(=O)O` (stereo not drawn), the T/C reads like this: under setting [7], 104 % of control; under setting [8], 97 % of control; under setting [9], 96 % of control; (dose: 50.0 mg/kg/injection, schedule: Q01DX009 (ip), vehicle: saline with Tween-80) 95 % of control; (dose: 100.0 mg/kg/injection, schedule: Q01DX009 (ip), vehicle: saline with Tween-80) 87 % of control.

With `O=C(Nc1ccc(F)cc1)Nc1nccs1`, the T/C under setting [10] was 99 % of control, the T/C under setting [11] is 104 % of control, the T/C under setting [12] is 101 % of control and the T/C under setting [13] was 104 % of control.

As for `COC(=O)[CH](C[N+](=O)[O-])[Hg][Cl]` (stereo not drawn), the T/C (dose: 3.2 mg/kg/injection, schedule: Q01DX009 (ip), vehicle: saline with Tween-80) was 95 % of control; the T/C (dose: 6.25 mg/kg/injection, schedule: Q01DX009 (ip), vehicle: saline) is 102 % of control; the T/C (dose: 6.3 mg/kg/injection, schedule: Q01DX009 (ip), vehicle: saline with Tween-80) was 91 % of control; the T/C under setting [8] is 89 % of control; the T/C under setting [4] is 93 % of control; the T/C (dose: 12.5 mg/kg/injection, schedule: Q04DX003 (ip), vehicle: Klucel (hydroxypropylcellulose) (HPC)) was 94 % of control. Further, the T/C reads like this: under setting [5], 89 % of control; under setting [1], 92 % of control.

As to `O=C(CNC(=O)Nc1ccc(C2=NCCN2)cc1)Nc1ccc(C2=NCCN2)cc1`, the T/C was 97 % of control under setting [7], 100 % of control under setting [8] and 97 % of control under setting [9].

For the molecule `C=C1C(=O)OC2C1C(OC(=O)/C(C)=C/COC(C)=O)CC1(CO1)C1C(O)C=C(C)C21` (stereo not drawn), the T/C by setting is: (dose: 6.25 mg/kg/injection, schedule: Q01DX009 (ip), vehicle: other) 103 % of control; (dose: 12.5 mg/kg/injection, schedule: Q01DX009 (ip), vehicle: other) 100 % of control; (dose: 25.0 mg/kg/injection, schedule: Q01DX009 (ip), vehicle: other) 104 % of control.

`O=[N+]([O-])CC1(O)CCCCC1`: the T/C reads like this: under setting [14], 102 % of control; under setting [10], 94 % of control.

As for `CC(=O)C1(O)CCCCC1`, the T/C (dose: 100.0 mg/kg/injection, schedule: Q04DX003 (ip), vehicle: saline) is 95 % of control; the T/C (dose: 200.0 mg/kg/injection, schedule: Q04DX003 (ip), vehicle: saline) is 100 % of control; the T/C (dose: 400.0 mg/kg/injection, schedule: Q04DX003 (ip), vehicle: saline) was 100 % of control.

In the case of `c1cc(OCC2CO2)ccc1OCC1CO1` (stereo not drawn), the T/C under setting [14] is 100 % of control, the T/C under setting [10] is 105 % of control, the T/C under setting [11] was 110 % of control and the T/C under setting [12] is 120 % of control.

For `CC[CH](C)[Hg][c]1cccc2ccccc12` (stereo not drawn), the T/C runs as follows: under setting [10], 105 % of control; under setting [11], 91 % of control.

Turning to `COc1cc2c[n+](C)c3c4cc(OC)c(OC)cc4ccc3c2cc1OC`, the T/C reads like this: (dose: 6.25 mg/kg/injection, schedule: Q01DX001 (ip), vehicle: saline with Tween-80) 109 % of control; (dose: 12.5 mg/kg/injection, schedule: Q01DX001 (ip), vehicle: saline with Tween-80) 100 % of control; (dose: 25.0 mg/kg/injection, schedule: Q01DX001 (ip), vehicle: saline with Tween-80) 105 % of control; (dose: 50.0 mg/kg/injection, schedule: Q01DX001 (ip), vehicle: saline with Tween-80) 88 % of control; under setting [11], 108 % of control; (dose: 100.0 mg/kg/injection, schedule: Q01DX001 (ip), vehicle: saline with Tween-80) 90 % of control. Further, the T/C under setting [12] was 102 % of control.

For the molecule `O=C(Cl)c1ccccc1S(=O)(=O)N(CCOc1ccccc1)c1ccccc1`, the T/C under setting [12] is 90 % of control; the T/C under setting [13] was 96 % of control; the T/C (dose: 400.0 mg/kg/injection, schedule: Q01DX009 (ip), vehicle: Klucel (hydroxypropylcellulose) (HPC)) is 87 % of control.

On to `CCc1ccc(C(C)(C)C)cc1`, for which the T/C reads like this: under setting [1], 103 % of control; under setting [2], 93 % of control; under setting [3], 101 % of control; (dose: 200.0 mg/kg/injection, schedule: Q04DX003 (ip), vehicle: Klucel (hydroxypropylcellulose) (HPC)) 100 % of control.

As to `CCC(C)C1NC(=O)C(NC(=O)c2c3nc4c(C(=O)NC5C(=O)NC(C(C)CC)C(=O)N6CCCC6C(=O)N(C)CC(=O)N(C)C(C(C)C)C(=O)OC5C)ccc(C)c4oc-3c(C)c(=O)c2Cl)C(C)OC(=O)C(C(C)C)N(C)C(=O)CN(C)C(=O)C2CCCN2C1=O` (stereo not drawn), the T/C is, setting by setting: (dose: 1.25 mg/kg/injection, schedule: Q01DX009 (ip), vehicle: Klucel (hydroxypropylcellulose) (HPC)) 117 % of control; (dose: 10.0 mg/kg/injection, schedule: Q01DX009 (ip), vehicle: Klucel (hydroxypropylcellulose) (HPC)) 164 % of control.

On to `NC(=O)NO`, for which the T/C (dose: 37.5 mg/kg/injection, schedule: Q03HX024 (ip), vehicle: saline) was 95 % of control and 100 % of control; the T/C (dose: 75.0 mg/kg/injection, schedule: Q03HX024 (ip), vehicle: saline) is 95 % of control; the T/C (dose: 150.0 mg/kg/injection, schedule: Q01DX009 (ip), vehicle: water) is 95 % of control; the T/C (dose: 150.0 mg/kg/injection, schedule: Q01DX017 (ip), vehicle: water) was 93 % of control; the T/C (dose: 150.0 mg/kg/injection, schedule: Q## X009 (ip), vehicle: water) was 95 % of control; the T/C (dose: 300.0 mg/kg/injection, schedule: Q01DX009 (ip), vehicle: water) is 100 % of control. The T/C runs as follows: (dose: 300.0 mg/kg/injection, schedule: Q01DX017 (ip), vehicle: water) 97 % of control; (dose: 300.0 mg/kg/injection, schedule: Q## X009 (ip), vehicle: water) 93 % of control; (dose: 600.0 mg/kg/injection, schedule: Q## X009 (ip), vehicle: water) 100 % of control; (dose: 2400.0 mg/kg/injection, schedule: Q01DX001 (ip), vehicle: water) 100 % of control.

Take `CCCCCCCC(=O)Nc1ccc(C)cc1`: the T/C is, setting by setting: under setting [2], 89 % of control; under setting [3], 91 % of control.

Turning to `CCCSc1ccccc1N1CCN(CC(COC)OC)CC1` (stereo not drawn), the T/C is, setting by setting: under setting [4], 101 % of control; under setting [5], 100 % of control; under setting [6], 96 % of control.

As for `C=C1N(C)c2ccccc2C1(C)C`, the T/C runs as follows: (dose: 1.0 mg/kg/injection, schedule: Q01DX009 (ip), vehicle: saline with Tween-80) 104 % of control; (dose: 2.0 mg/kg/injection, schedule: Q01DX009 (ip), vehicle: saline with Tween-80) 100 % of control; (dose: 4.0 mg/kg/injection, schedule: Q01DX009 (ip), vehicle: saline with Tween-80) 98 % of control; (dose: 13.0 mg/kg/injection, schedule: Q01DX009 (ip), vehicle: saline with Tween-80) 117 % of control; (dose: 19.0 mg/kg/injection, schedule: Q01DX009 (ip), vehicle: saline with Tween-80) 98 % of control; (dose: 29.0 mg/kg/injection, schedule: Q01DX009 (ip), vehicle: saline with Tween-80) 104 % of control. For the same molecule, where the note is “dose: 45.0 mg/kg/injection, schedule: Q01DX009 (ip), vehicle: saline with Tween-80”, the T/C was 98 % of control.
